Source: US11951214B2, “Capsule formulations” (CHEMOCENTRYX, INC., priority 2018, dated 2024)

Assay: Pharmacokinetics of solid solution capsules in dogs
Details: male, beagle, dog, in vivo, po, 20 mg, PO 20 mg/dog
Procedure: Solid Solution capsules of Compound 1 comprising 50:50 macrogol-40-glycerol hydroxystearate:PEG-4000 or 100% macrogol-40-glycerol hydroxystearate were prepared using the general procedures described in Example 4. The PEG heating steps were omitted for the 100% macrogol-40 glycerol hydroxystearate formulations. These formulations were dosed in beagle dogs (male) at 20 mg per dog to evaluate the pharmacokinetic profile. The results are summarized in Table 11 (below, and shown in FIG. 8 (50:50 macrogol-40-glycerol hydroxystearate:PEG-4000 and FIG. 9 (100% macrogol-40-glycerol hydroxystearate).

[1] = capsule in 50:50 macrogol-40-glycerol hydroxystearate:PEG-4000, Average of T1-T3
[2] = capsule in 50:50 macrogol-40-glycerol hydroxystearate:PEG-4000, trial T1
[3] = capsule in 50:50 macrogol-40-glycerol hydroxystearate:PEG-4000, trial T2
[4] = capsule in 50:50 macrogol-40-glycerol hydroxystearate:PEG-4000, trial T3
[5] = capsule in 100% macrogol-40-glycerol hydroxystearate, Average of T1-T3
[6] = capsule in 100% macrogol-40-glycerol hydroxystearate, trial T1
[7] = capsule in 100% macrogol-40-glycerol hydroxystearate, trial T2
[8] = capsule in 100% macrogol-40-glycerol hydroxystearate, trial T3

- AUC(0-inf) [1]: 1630 ng·h/mL
- AUC(0-t) [1]: 1580 ng·h/mL
- Cmax [1]: 429 ng/mL
- MRT [1]: 4.7 h
- Tmax [1]: 1.3 h
- AUC(0-inf) [2]: 1310 ng·h/mL
- AUC(0-t) [2]: 1260 ng·h/mL
- Cmax [2]: 411 ng/mL
- MRT [2]: 4.8 h
- Tmax [2]: 1 h
- AUC(0-inf) [3]: 1440 ng·h/mL
- AUC(0-t) [3]: 1390 ng·h/mL
- Cmax [3]: 396 ng/mL
- MRT [3]: 4.5 h
- Tmax [3]: 1 h
- AUC(0-inf) [4]: 2150 ng·h/mL
- AUC(0-t) [4]: 2080 ng·h/mL
- Cmax [4]: 481 ng/mL
- MRT [4]: 4.8 h
- Tmax [4]: 2 h
- AUC(0-inf) [5]: 2440 ng·h/mL
- AUC(0-t) [5]: 2370 ng·h/mL
- Cmax [5]: 607 ng/mL
- MRT [5]: 4.8 h
- Tmax [5]: 2.3 h
- AUC(0-inf) [6]: 2660 ng·h/mL
- AUC(0-t) [6]: 2470 ng·h/mL
- Cmax [6]: 590 ng/mL
- MRT [6]: 7.1 h
- Tmax [6]: 2 h
- AUC(0-inf) [7]: 3020 ng·h/mL
- AUC(0-t) [7]: 3000 ng·h/mL
- Cmax [7]: 604 ng/mL
- MRT [7]: 4.2 h
- Tmax [7]: 4 h
- AUC(0-inf) [8]: 1660 ng·h/mL
- AUC(0-t) [8]: 1650 ng·h/mL
- Cmax [8]: 628 ng/mL
- MRT [8]: 3.2 h
- Tmax [8]: 1 h
Structure (SMILES): Cc1ccc(NC(=O)[C@H]2CCCN(C(=O)c3c(C)cccc3F)[C@H]2c2ccc(NC3CCCC3)cc2)cc1C(F)(F)F [Compound 1, (2R,3 S)-2-(4-(cyclopentylamino)phenyl)-1-(2-fluoro-6-methylbenzoyl)-N-(4-methyl-3-(trifluoromethyl)phenyl)piperidine-3-carboxamide]
